Experiments:
[1] = tested on: female hooded-Lister rats; assay: Elevated plus maze, Study 1; format: in vivo, rat
Excerpt: (§1) The elevated plus maze has been widely used as a test for anxiety, as it avoids confounding effects on consummatory responses or sensitivity to shock and it has a certain level of ethological relevance (see Rodgers R J, Cole J C (1994) The elevated plus maze. Pharmacological methods and ethology. In: Cooper, S J, Hendrie C A (eds) Ethology and Psychopharmacology. J. Wiley & Sons Ltd, pp 9-941994).
(§2) The maze consists of opposite pairs of open and closed arms, and the proportion of exploration carried out on the open arms is taken to be a measure of anxiety. Thus the percentage of open arm entries is increased by known anxiolytic agents and reduced by anxiogenic compounds (Pellow, S, Chopin P, File S E, Briley, M (1985) Validation of open: closed arm entries in an elevated plus maze as a measure of anxiety in the rat. J. Neurosci. Meth. 14: 149-167). In addition, the plus maze may be used to examine the behavioural response to stress, as exposure induces the release of corticosterone File, S E, Pellow, S (1987) Behavioural pharmacology of minor tranquillisers. J. Pharmacol. Exp. Ther. 35: 265-290). The elevated plus maze is based on an approach conflict model and has been validated as a model of anxiety in the rat (Tomkins D M (1990) The behavioural effects of anxiogenic agents in rodents. PhD thesis. Postgraduate studies in Pharmacology. University of Bradford).
(§3) Two studies were carried out using the elevated plus maze method and the aim of the studies was to assess the ability of a Isomer A for its ability to produce an anxiolytic effect in female hooded-Lister rats.
(§4) A total of 90 female hooded-Lister rats were used as subjects for study 1. Female hooded-Lister rats (Harlan, UK) were obtained as adults and weighed approximately 200-220 g at the start of the study. Subjects were housed in routinely used home cages in groups of 5 per cage. Home cages measured 59×35×24 cm. Rats were maintained under standard laboratory conditions on a 12:12 hour light/dark cycle (lights on at 08:00 h). Experimental procedures were performed in the light phase. Laboratory rooms were temperature controlled at 21±2° C. and humidity remained at 40-50% throughout the study. Rats were tested in the naïve state i.e. they had no exposure to the plus maze prior to testing, although they were handled and received sham injections prior to testing.
Isomer A (1.0-30.0 mg/kg) and chlordiazepoxide (1.0-5.0 mg/kg) were tested. Isomer A was dissolved in water and administered via the oral route 30 minutes prior to testing. Chlordiazepoxide (CDP) was dissolved in saline and administered via the intraperitoneal route 30 min prior to testing.
(§5) The maze consisted of a +shaped maze, made of Perspex, with two open arms (30×5 cm) and two closed arms (30×5 cm). The maze was arranged so that like arms are opposing. The closed arms were surrounded by matt black walls on all sides (10 cm in height). The maze was elevated to a height of 50 cm, and the surface was covered with a removable rubber matting. The behaviour of drug or vehicle-treated rats was monitored by means of a video camera attached to a TV monitor and video recorder. The rat was placed in the centre square and behaviour monitored over a 10 min test period. […] The maze was cleaned between tests and rats were placed on the maze in a randomised manner in order to minimise the effects of familiar cage mate odours.
(§6) Behaviour was recorded and the following parameters were analysed from the video tapes using the Hindsight® program for ethological analysis of behaviour: time spent on, and entries into, the open and closed arms, time spent in the centre square and rearing on the open and closed arms.
(§7) Elevated plus maze data were analysed by a one way ANOVA, followed by Dunnett's t test to assess drug effects on number of entries into the open and closed arms, length of time spent, and number of rears in, open and closed arms, and time spent in the centre square compared with vehicle.

[2] = tested on: female hooded-Lister rats; assay: Elevated plus maze, Study 2; format: in vivo, rat
Excerpt: as §1, §2, §3
as §4, with “60” for “90”, “B.” for “1.”, “(Charles River,” for “(Harlan,”, “220-250” for “200-220”
Isomer A (0.1-2.5 mg/kg) and chlordiazepoxide (2.5 mg/kg) were tested. Isomer A was dissolved in water and administered via the oral route (p.o.) 30 minutes prior to testing. Chlordiazepoxide (CDP) was dissolved in saline and administered via the intraperitoneal route (i.p.) 30 min prior to testing.
as §5, §6, §7

[3] = Isomer A 1.0-10 mg/kg p.o., 10 min trial, ANOVA
[4] = Isomer A 1.0-10 mg/kg p.o., 10 minute trial, ANOVA
[5] = Isomer A 1.0-10 mg/kg p.o., 10 minute trial, overall ANOVA
[6] = CDP 2.5 mg/kg i.p. and Isomer A 0.1-2.5 mg/kg p.o., 10 min trial, overall ANOVA
[7] = CDP 1.0-5.0 mg/kg i.p., 10 min trial, ANOVA

In the case of `COc1cc2c(cc1OC)[C@@H]1C[C@@H](O)[C@H](CC(C)C)CN1CC2` (single isomer, unassigned) [Isomer A], the “total open arm entries” value ([1]; Isomer A 1 mg/kg p.o., 10 minute trial) is reported as “trend towards an increase”, the “magnitude of the increase in time spent on the open arms relative to CDP at 2.5 mg/kg” value ([1]; Isomer A 1 mg/kg p.o., Study 1) is reported as “comparable” and the “time spent on the open arms” value ([1]; Isomer A 1 mg/kg p.o., post-hoc vs vehicle (p<0.05)) is reported as “significant increase”. For the same molecule, the “overall activity levels on the elevated plus maze” value ([1]; Isomer A 30 mg/kg p.o., animals remained stationary for much of the 10 minute test, behaviour not scored) was “markedly reduced”, the “time spent in the centre square” value [1, 3] was “no significant effect” and the “time spent on the closed arms” value [1, 3] was “no significant effect”. The number of rears [1, 4] was “no significant effect”, the “total closed arm entries” value [1, 4] was “no significant effect” and the “time spent on the open arms” value [1, 5] was “overall significant effect”. The “total open arm entries” value [1, 5] was “significant effect”, the “anxiolytic effect on the elevated plus maze” value ([1]; Isomer A, Study 1, some measures of behaviour) was “some anxiolytic potential” and the “time spent on the closed arms” value ([1]; Isomer A, most marked at 1.0 mg/kg p.o., failed to reach statistical significance) was “trend towards a reduction”. For the same molecule, the number of rears [2, 6] was “no overall significant effect”, the “time spent in the centre square” value [2, 6] was “no overall significant effect” and the “time spent on the closed arms” value [2, 6] was “overall significant effect”. The “time spent on the open arms” value [2, 6] was “overall significant effect”, the “total closed arm entries” value [2, 6] was “no overall significant effect” and the “total open arm entries” value [2, 6] was “no overall significant effect”. For the same molecule, the “time in the centre square” value ([2]; Isomer A 0.1 mg/kg p.o., effect failed to achieve statistical significance) was “reduced”, the “time spent on the closed arms” value ([2]; Isomer A 1.0 mg/kg p.o., post-hoc vs vehicle (p<0.05)) was “significant reduction” and the “magnitude of the increase in time spent on the open arms relative to CDP at 2.5 mg/kg” value ([2]; Isomer A 0.1-2.5 mg/kg p.o., Study 2) was “comparable”. For the same molecule, the “time spent on the open arms” value ([2]; Isomer A, all doses 0.1-2.5 mg/kg p.o., post-hoc vs vehicle (p<0.05-p<0.001)) was “significant increase” and the “anxiolytic effect on the elevated plus maze” value ([2]; Isomer A, all doses tested 0.1-2.5 mg/kg p.o., Study 2, certain measures of behaviour) was “anxiolytic potential”.

`CNC1=Nc2ccc(Cl)cc2C(c2ccccc2)=[N+]([O-])C1` [CDP, chlordiazepoxide, reference compound] was tested, and the number of rears [1, 7] was “no significant effect”, the “time spent on the closed arms” value [1, 7] was “no significant effect” and the “total closed arm entries” value ([1]; CDP 1.0-5.0 mg/kg i.p., 10 minute trial, ANOVA) was “no significant effect”.

— patent US20110190333A1, “DIHYDROTETRABENANZINE FOR THE TREATMENT OF ANXIETY” (Biovail Laboratories International (Barbados) S.R.L., priority 2008, published 2011)
